The values that follow come from patent US11053225B2, “Pyrimidine derivative compound, optical isomer thereof, or pharmaceutically acceptable salt thereof, and composition for preventing or treating Tyro 3 related disease comprising same as active ingredient” (KOREA RESEARCH INSTITUTE OF CHEMICAL TECHNOLOGY, priority 2017, dated 2021).

One test deals with Mer (Homo sapiens (Human), UniProt Q12866). The test can be described thus: Mer kinase inhibition assay (Cisbio method, Eu-labeled antibody to phosphorylated peptide). The settings on record: read-out: IC50 (μM) Mer; 1 hour reaction with substrate peptide and ATP.
A further test deals with Tyro 3 (Homo sapiens (Human), UniProt Q06418). The test can be described thus: Tyro 3 kinase inhibition assay (Cisbio method, Eu-labeled antibody to phosphorylated peptide). The following applies: read-out: IC50 (μM) Tyro 3; 1 hour reaction with substrate peptide and ATP.
A further test has as its target Axl (Homo sapiens (Human), UniProt P30530). Nature of the test: Axl kinase inhibition assay (Cisbio method, Eu-labeled antibody to phosphorylated peptide). The following applies: read-out: IC50 (μM) Axl; 1 hour reaction with substrate peptide and ATP.

The structures appear in SMILES notation. Bounds are passed on as bounds.

Sequence of Axl (P30530 26-894): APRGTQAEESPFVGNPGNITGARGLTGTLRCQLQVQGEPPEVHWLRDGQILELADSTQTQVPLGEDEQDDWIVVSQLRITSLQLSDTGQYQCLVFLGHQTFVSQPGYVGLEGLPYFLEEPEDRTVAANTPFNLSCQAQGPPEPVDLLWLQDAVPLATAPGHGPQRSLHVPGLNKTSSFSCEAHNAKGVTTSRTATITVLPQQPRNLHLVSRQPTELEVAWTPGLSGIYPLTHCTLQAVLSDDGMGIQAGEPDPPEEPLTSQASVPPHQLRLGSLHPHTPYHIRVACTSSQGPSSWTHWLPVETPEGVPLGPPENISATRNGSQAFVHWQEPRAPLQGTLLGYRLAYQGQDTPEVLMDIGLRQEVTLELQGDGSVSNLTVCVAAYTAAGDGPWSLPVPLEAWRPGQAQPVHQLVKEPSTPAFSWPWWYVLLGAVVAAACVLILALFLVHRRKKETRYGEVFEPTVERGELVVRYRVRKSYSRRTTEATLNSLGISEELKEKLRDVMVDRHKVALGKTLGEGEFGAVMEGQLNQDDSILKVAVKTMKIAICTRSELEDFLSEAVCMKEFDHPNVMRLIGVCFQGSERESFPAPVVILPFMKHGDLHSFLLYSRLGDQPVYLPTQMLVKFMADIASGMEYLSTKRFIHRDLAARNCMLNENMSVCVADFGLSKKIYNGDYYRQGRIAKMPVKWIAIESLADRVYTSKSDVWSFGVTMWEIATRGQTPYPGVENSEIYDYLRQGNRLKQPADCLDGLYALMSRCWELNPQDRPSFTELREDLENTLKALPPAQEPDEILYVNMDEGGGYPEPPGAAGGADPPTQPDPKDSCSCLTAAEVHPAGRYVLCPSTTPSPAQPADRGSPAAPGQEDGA
Sequence of Mer (Q12866 21-999): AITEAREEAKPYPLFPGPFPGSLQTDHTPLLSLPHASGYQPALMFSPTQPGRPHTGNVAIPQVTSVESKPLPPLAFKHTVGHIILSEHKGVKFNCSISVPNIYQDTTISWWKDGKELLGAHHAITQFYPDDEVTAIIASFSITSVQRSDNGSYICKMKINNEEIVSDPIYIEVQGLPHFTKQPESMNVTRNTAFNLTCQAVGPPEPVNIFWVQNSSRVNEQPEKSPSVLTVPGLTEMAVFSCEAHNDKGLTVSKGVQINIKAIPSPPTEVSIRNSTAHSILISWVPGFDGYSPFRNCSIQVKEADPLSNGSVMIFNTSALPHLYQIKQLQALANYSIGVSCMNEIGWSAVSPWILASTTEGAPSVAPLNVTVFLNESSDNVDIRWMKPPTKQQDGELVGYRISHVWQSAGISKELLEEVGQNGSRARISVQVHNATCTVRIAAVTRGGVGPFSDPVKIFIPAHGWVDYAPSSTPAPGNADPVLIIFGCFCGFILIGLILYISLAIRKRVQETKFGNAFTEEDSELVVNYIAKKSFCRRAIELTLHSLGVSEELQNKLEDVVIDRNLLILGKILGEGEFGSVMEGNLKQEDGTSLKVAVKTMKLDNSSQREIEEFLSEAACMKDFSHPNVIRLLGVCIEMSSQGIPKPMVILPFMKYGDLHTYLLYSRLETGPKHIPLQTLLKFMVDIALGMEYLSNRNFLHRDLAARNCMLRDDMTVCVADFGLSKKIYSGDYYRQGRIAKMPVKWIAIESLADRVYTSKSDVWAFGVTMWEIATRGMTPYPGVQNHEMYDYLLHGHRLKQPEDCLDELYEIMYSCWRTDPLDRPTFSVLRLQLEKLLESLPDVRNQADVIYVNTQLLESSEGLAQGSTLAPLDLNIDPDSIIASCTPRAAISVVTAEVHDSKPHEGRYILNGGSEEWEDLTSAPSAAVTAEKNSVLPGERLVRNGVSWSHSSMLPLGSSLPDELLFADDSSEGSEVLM
Sequence of Tyro 3 (Q06418 41-890): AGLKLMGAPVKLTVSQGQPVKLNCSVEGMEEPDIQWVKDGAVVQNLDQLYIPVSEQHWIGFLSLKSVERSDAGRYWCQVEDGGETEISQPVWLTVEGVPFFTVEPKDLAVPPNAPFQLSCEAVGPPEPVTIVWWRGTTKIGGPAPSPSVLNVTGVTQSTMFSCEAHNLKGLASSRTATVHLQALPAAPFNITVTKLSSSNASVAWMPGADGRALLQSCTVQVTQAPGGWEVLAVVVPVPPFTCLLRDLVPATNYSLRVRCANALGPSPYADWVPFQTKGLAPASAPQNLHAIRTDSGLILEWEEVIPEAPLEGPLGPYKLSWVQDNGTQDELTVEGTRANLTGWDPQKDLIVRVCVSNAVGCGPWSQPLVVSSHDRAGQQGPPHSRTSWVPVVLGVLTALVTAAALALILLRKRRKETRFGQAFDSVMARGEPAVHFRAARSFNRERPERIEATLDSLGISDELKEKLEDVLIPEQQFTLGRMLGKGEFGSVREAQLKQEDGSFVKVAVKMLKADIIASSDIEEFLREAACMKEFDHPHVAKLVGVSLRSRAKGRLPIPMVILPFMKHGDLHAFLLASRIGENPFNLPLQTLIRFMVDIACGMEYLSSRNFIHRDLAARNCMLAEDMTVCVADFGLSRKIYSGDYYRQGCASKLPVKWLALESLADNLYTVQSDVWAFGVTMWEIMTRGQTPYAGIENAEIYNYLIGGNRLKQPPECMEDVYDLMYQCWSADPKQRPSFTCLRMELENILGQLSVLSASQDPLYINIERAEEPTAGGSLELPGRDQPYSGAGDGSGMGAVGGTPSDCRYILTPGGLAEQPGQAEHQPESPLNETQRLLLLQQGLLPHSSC
Procedure for Axl: (§1) For evaluation of inhibitory activities of the compounds according to the present invention on Tyro 3, Axl, and Mer, the following test was carried out.
(§2) The specific test method followed the method provided by Cisbio. The compounds of the examples were prepared at various concentrations, followed by addition of Tyro 3, Axl, or Mer and substrate peptides, and then ATP was added to initiate a reaction. After 1 hour, the reaction was stopped by addition of a solution containing EDTA. Thereafter, the amount of phosphorylated peptides was measured. Here, the phosphorylated peptides were treated with an europium (Eu)-labeled antibody recognizing phosphorylated peptides, and then after 1 hour, excited by irradiation of the light of a wavelength of 320 or 340 nm using an Envision Reader.
Procedure for Mer: as §1, §2
Procedure for Tyro 3: as §1, §2

A word on the IC50: it is the concentration at which inhibition is half-maximal. As for `CCOc1cn(-c2ccc(F)cc2C)nc1C(=O)Nc1ccc(Oc2ccnc3cc(OC)c(OC)cc23)c(F)c1` [LDC1267, reference compound], the IC50 at Mer was 0.068 µM.

As to `Cn1cc(-c2cnc(Nc3cc(C(F)(F)F)cc(C(F)(F)F)c3)nc2Nc2ccc3c(c2)CN(C(=O)C(F)(F)F)CC3)cn1` [Compound 139, 1-(7-(2-(3,5-bis(trifluoromethyl)phenylamino)-5-(1-methyl-1H-pyrazol-4-yl)pyrimidin-4-ylamino)-3,4-dihydroisoquinolin-2(1H)-yl)-2,2,2-trifluoroethan-1-one], the 50% inhibitory concentration (IC50) is 6.2e-06 µM at Tyro 3 and > 10 µM on Axl.

In the case of `Cn1cc(-c2cnc(Cl)nc2NC2CCCCC2)cn1` [Compound 4, 2-chloro-N4-cyclohexyl-5-(1-methyl-1H-pyrazol-4-yl)pyrimidine-4-amine], the 50% inhibitory concentration (IC50) on Mer and at Tyro 3 was > 10 µM throughout.

In the case of `Cc1ccc(Nc2ncc(Br)c(NC3CCCCC3)n2)cc1` [Compound 1, 5-bromo-N4-cyclohexyl-N2-(p-tolyl)pyrimidine-2,4-diamine], the half-inhibitory concentration (IC50) at Mer, on Tyro 3 and at Axl was > 10 µM each time.

As for `Cn1cc(-c2cnc(Nc3cc(Cl)cc(Cl)c3)nc2NC2CCCCC2)cn1` [Compound 5, N4-cyclohexyl-N2-(3,5-dichlorophenyl)-5-(1-methyl-1H-pyrazol-4-yl)pyrimidine-2,4-diamine], the IC50 was > 2 µM on Mer and > 10 µM on Axl.
